Experimental data as given in patent US8097624B2, “Cycloalkyl derivatives of 3-hydroxy-4-pyridinones” (Apotex Inc., priority 2006, dated 2012).
Structures can show the parent of a compound that is named as a salt. Where two headings read alike, the source gives them in different places.

What was measured:
[1] = Distribution coefficient determination (D7.4), 1-octanol / MOPS buffer; type: physicochemical; details: 1-octanol / MOPS buffer pH 7.4
Experimental: MOPS buffer (50 mM, pH=7.4) and 1-octanol were used as the aqueous phase and the organic phase, respectively, for distribution coefficient determinations. The MOPS buffer and 1-octanol were pre-saturated with each other before use.
In a typical experiment, an organic stock solution of Apo6618 (1-cyclopropyl-3-hydroxy-6-methyl-4-oxo-1,4-dihydro-pyridine-2-carboxylic acid cyclopropylamide) was prepared by weighing out 0.50 mg of the compound into a 10-mL volumetric flask and bringing to volume with 1-octanol. The solution was then sonicated for 60 minutes so that the sample could dissolve completely. The concentration of the stock solution was calculated as C^0org=2.0×10^−4 M. The organic standard solution of Apo6618 with 2.0×10^−5 M was prepared in a 10-mL volumetric flask by 10 times dilution of the stock solution with 1-octanol. The sample solution was prepared in a 10-mL volumetric flask. The stock sample solution (3 ml) was pipetted into the flask followed by the addition of MOPS buffer (3 ml). The standard and sample solutions were then vortexed for 2 hours. After vortexing, the solutions were transferred to test tubes and centrifuged at 4000 rpm for 15 minutes. UV-Vis spectra were recorded for the standard solution and the organic (top) phase of the sample solution at 22° C. The distribution coefficient, D7.4, was calculated using the following equation: D7.4=[Aorg/(C^0orgεorg−Aorg)]×(Vaqu/Vorg)
Where εorg=the molar extinction coefficient of the peak wavelength (λmax) obtained from the UV-Vis spectrum of the organic standard solution; Aorg=absorbance of the organic phase in the sample solution at the same λmax; C^0org=the concentration of the stock solution; Vaqu=the volume of MOPS buffer in the sample solution; Vorg=the volume of the stock solution in the sample solution.

[2] = pKa determination by potentiometric or spectrophotometric titration; type: physicochemical; details: titration in 0.1 M NaCl at 22° C.
Experimental: The pKa values of ligands were determined by potentiometric titration when a ligand concentration greater than 1×10^−2 M in water could be prepared. In a typical experiment, the sample solution (2.67×10^−2 M) was prepared by the following method: Apo6619 (92.6 mg) was weighed into a 25-ml beaker, followed by the addition of 0.1 M NaCl (15 ml). The mixture was sonicated for 10 minutes to give a clear colorless solution. Nitrogen gas was then allowed to bubble through the solution. 1.000 N Hydrochloric acid (624 μl, 1.5 equivalent) was added to the solution to give pH 1.88. The solution was allowed to equilibrate at 22° C. for 60 minutes.
The solution was then titrated against 1.000 N NaOH at 22° C. to reach pH 11.8. For each addition of base, the solution was allowed to equilibrate until a constant pH reading was reached. The volume of the base added and the pH reading were recorded for each measurement. 137 measurements were taken to finish the experiment.
The data set of pH vs. base volume was analyzed using Hyperquad 2000 (Version 2.1, Peter Gans, University of Leeds).
The pKa values of ligands can be determined by spectrophotometric titration when both the conjugated acid and base absorb in the UV-Visible region. In a typical experiment, the sample solution was prepared by the following method: Apo6617 (0.792 mg) was weighed into an 80-ml beaker, followed by the addition of 0.1 M NaCl (50 ml). The mixture was sonicated for 5 minutes to give a clear colorless solution. Nitrogen gas was allowed to bubble through the solution. 1.000 N NaOH (50 μl) was added to give pH 10.9. The solution was allowed to equilibrate at 22° C. for 1 hour. A sipper system was used for the circulation of the sample solution between the beaker and the flow cell.
The sample solution was titrated against standard hydrochloric acid solutions at 22° C. to reach pH 1.40. After each addition of acid the solution was allowed to equilibrate until a constant pH reading was reached. The pH and the UV-Vis spectrum were recorded for each measurement. The peak wavelengths of the deprotonated species (L^−), the neutral species (LH), and the protonated species (LH2^+) were 314 nm, 281 nm, and 249 nm, respectively. In the region of pH>6, after each addition of acid there was a slight decrease in the absorbance at 314 nm and a slight increase at 281 nm in each spectrum, whereas in the region of pH<5, after each addition of acid there was a slight decrease in the absorbance at 281 nm and a slight increase at 249 nm in each spectrum. The solution was titrated until there was no obvious change in the spectra after several subsequent additions of acid. 116 measurements were taken to finish the experiment.
The resulting data set was then analyzed using pHAB (Peter Gans, University of Leeds).

[3] = Metal complexation constants, Fe system (spectrophotometric titration; pM by Hyss); type: binding; details: for Log β3: Fe(III) overall complexation constant; for pFe^3+: total iron 10^−6 M, ligand 10^−5 M, pH 7.4, calculated from experimental pKa and complexation constants
Experimental: Compounds of this invention are designed to improve properties to known deferiprone analogues. […]. The definition of pFe^3+ used herein is the concentration of ferric ion in solution when the total amount of iron equals 10^−6 M and the concentration of ligand is 10^−5 M and pH is 7.4. It is calculated using experimental determined pKa and metal complexation constants using Hyperquad software (Version 2.1, Peter Gans, University of Leeds). The lowering of the pKa value of the C3 phenolic OH to less than 8.8 ensures that a higher pFe^3+ value when combined with a favorable complexation constant β3. The concept of complexation is detailed below.
The stepwise and overall complexation constants of a bidentate ligand such as 3-hydroxy-4-pyridinone follow: Fe(III)+Ligand→Fe[Ligand]1K1 Fe[Ligand]1+Ligand→Fe[Ligand]2K2 Fe[Ligand]2+Ligand→Fe[Ligand]3K3 Complexation constant β3=K1.K2.K3
Stepwise formation constants for M^n+-ligand systems were determined by spectrophotometric titration when metal complexes have a strong absorbance in the visible region due to ligand to metal charge transfer. In a typical experiment, the sample solution was prepared according to the following method: Apo6619 (10.7 mg) was weighed into an 80-ml beaker, followed by the addition of 0.1 M NaCl (50 ml). The mixture was sonicated for 10 minutes to give a clear colorless solution. Iron stock solution (atomic absorption standard, Aldrich, 496 μl, 8.93E-06 moles) was pipetted into the solution followed by the addition of 1.000 N NaOH (137 μl). The molar ratio between the total iron and the total Apo6619 was 1:5.4. The mixture was allowed to equilibrate at room temperature overnight. Nitrogen was allowed to bubble through the solution. 1.000 N Hydrochloric acid (3 ml) was then added to the solution to give pH 1.5. The solution was allowed to equilibrate at 22° C. for 3 hours.
A sipper system was used for the circulation of the sample solution between the beaker and the flow cell.
The sample solution was titrated against standard NaOH solutions at 22° C. to reach pH 6.89. After each addition of base the solution was allowed to equilibrate until a constant pH reading was reached. The pH and the UV-Vis spectrum were recorded for each measurement. For each measurement enough base was added so that there was a slight increase in the absorbance of the spectrum. The solution was titrated until there was no obvious increase in the spectra after several subsequent additions of base. Altogether 64 measurements were taken to finish the experiment.
[…]; pM^n+ is defined as −log [M(H2O)m]^n+ at physiological conditions, i.e.: pH 7.4, a ligand concentration of 10 μM, and a metal concentration of 1 μM.
To calculate pM^n+ for a MLn system, βn and pKa values are needed (βn are the formation constants for M^n++n L^− ? MLn; pKa are the equilibrium constants for L^−+n H^+ ? LHn^(n−1)+). The pM^n+ can be calculated by using Hyss software (Hyperquad Stimulation and Speciation software: HYSS2© 2000 Protonic Sofware).

[4] = U.S. Pat. No. 6,335,353; cited from earlier work
[5] = Redox potentials of iron complexes by cyclic voltammetry; type: physicochemical; details: glassy carbon working electrode, 2.0 mM, pH 7.4; for E1/2 / Ep^ox / Ep^red: vs Ag/AgCl
[6] = cited from earlier work

Row | Molecule | D7.4 [1] | pKas (higher value, phenolic C3 OH) [2] | pKas (lower value, LH2+) [2] | Log β3 [3] | pFe^3+ [3] | further results
1 | Cc1cc(=O)c(O)c(C(=O)NC2CC2)n1C1CC1 [Apo6618, 1-Cyclopropyl-3-hydroxy-6-methyl-4-oxo-1,4-dihydro-pyridine-2-carboxylic Acid Cyclopropylamide] | 0.331 | 8.6 | 2.5 | 33.6 | 20.5 | 
2 | Cc1cc(=O)c(O)c(C(=O)NC2CCCC2)n1C [Apo6620, N-cyclopentyl-3-hydroxy-1,6-dimethyl-4-oxo-1,4-dihydro-pyridine-2-carboxamide] | 0.78 | 8.7 | 2.7 | 33.8 | 20.3 | melting point: 289.3 °C (dec.)
3 | Cc1cc(=O)c(O)c(C(=O)NC2CCCCC2)n1C [Apo6621, 3-Hydroxy-1,6-dimethyl-4-oxo-1,4-dihydro-pyridine-2-carboxylic Acid Cyclohexylamide] | 2.2 | 8.7 | 2.5 | 34.3 | 20.9 | 
4 | Cc1cc(=O)c(O)c(C(=O)NC2CCC2)n1C [Apo6622, N-cyclobutyl-3-hydroxy-1,6-dimethyl-4-oxo-1,4-dihydropyridine-2-carboxamide] | 0.357 | 8.6 | 2.8 | 33.9 | 20.8 | 
5 | CNC(=O)c1c(O)c(=O)cc(C)n1C [CP502, 1,6-Dimethyl-3-hydroxy-4(1H)-pyridinone-2-carboxy-(N-methyl)-amide hydrochloride, reference compound] | 0.04 | 8.5 | 2.7 | 33.6 | 20.9 | O-glucuronidation at the C3 oxygen [4]: effectively blocked the O-glucuronidation
6 | CC(=O)N([O-])CCCCCNC(=O)CCC(=O)N([O-])CCCCCNC(=O)CCC(=O)N([O-])CCCCCN.[Fe+3] [Fe(DFO)] |  |  |  |  |  | ΔEp [5]: 112 mV; E1/2 [5]: −698 mV; Ep^ox [5]: −642 mV; Ep^red [5]: −754 mV; E1/2 literature value ([6]; vs Ag/AgCl, Crumbliss et al, Inorganic Chemistry 2003): −688 mV
7 | Cc1c([O-])c(=O)ccn1C.Cc1c([O-])c(=O)ccn1C.Cc1c([O-])c(=O)ccn1C.[Fe+3] [Fe(deferiprone)3] |  |  |  |  |  | ΔEp [5]: 107 mV; E1/2 [5]: −834 mV; Ep^ox [5]: −780 mV; Ep^red [5]: −887 mV
8 | Fe-transferrin: iron bound to transferrin in human blood |  |  |  |  |  | E1/2 ([6]; vs. Ag/AgCl): −720 mv; E1/2 ([6]; vs. NHE): −500 mv
